In patent publication US9856279B2 (AGIOS PHARMACEUTICALS, INC, priority 2011, dated 2018):

Legend:
U87MG cells = assay: Cellular assay for IDH1m inhibitors: inhibition of 2-HG production (LC-MS, 48 hours) in U87MG cells; format: cell-based; details: Homo sapiens, U-87 MG, inhibition of 2-HG production, U87R132H cells; read-out: U87R132H IC50
Summary of the method: (§1)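 Cells were seeded at 5000/well in DMEM with 10% FBS, incubated overnight, then treated with compound (0.2% DMSO final) for 48 h at 37° C. Medium 2-HG was quantified by LC-MS. IC50 is the concentration reducing 2-HG by 50% versus DMSO control, and CellTiter-Glo viability was read at 72 h.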

IDH1 R132H = IDH1 R132H (Homo sapiens, UniProt O75874, R132H); assay: Assay for IDH1 R132H inhibitors (NADPH/aKG, resazurin detection); format: biochemical; details: enzyme assay of Example 12; read-out: IDH1R132H IC50
Summary of the method: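 Compound added to substrate mix (8 uM NADPH, 2 mM aKG), then enzyme mix (0.2 μg/ml IDH1 R132H); 50 min RT in 20 mM Tris pH 7.5, 150 mM NaCl, 10 mM MgCl2, 0.03% BSA. Resazurin detection mix (30 μM) 5 min RT; resorufin fluorescence Ex544/Em590.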

HT1080 cells = assay: Cellular assay for IDH1m inhibitors: inhibition of 2-HG production (LC-MS, 48 hours) in HT1080 cells; format: cell-based; details: Homo sapiens, HT-1080; inhibition of 2-HG production, HT1080 cells; read-out: HT1080 IC50
Summary of the method: as §1

Chain of IDH1 R132H (O75874 whole entry R132H): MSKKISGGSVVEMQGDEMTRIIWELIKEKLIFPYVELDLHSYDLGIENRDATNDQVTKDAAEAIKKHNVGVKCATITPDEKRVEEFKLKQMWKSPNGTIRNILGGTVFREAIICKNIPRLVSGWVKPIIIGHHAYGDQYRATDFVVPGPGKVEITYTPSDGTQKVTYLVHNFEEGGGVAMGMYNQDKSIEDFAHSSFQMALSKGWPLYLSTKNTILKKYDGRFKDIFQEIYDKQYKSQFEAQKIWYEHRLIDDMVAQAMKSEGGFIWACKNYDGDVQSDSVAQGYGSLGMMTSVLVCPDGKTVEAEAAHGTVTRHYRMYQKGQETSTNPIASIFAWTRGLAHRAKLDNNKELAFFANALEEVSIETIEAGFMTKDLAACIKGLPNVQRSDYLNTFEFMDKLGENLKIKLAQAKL

IC50 (U87MG cells)	IC50 (IDH1 R132H)	IC50 (HT1080 cells)	SMILES
< 0.5 µM	< 0.5 µM	< 0.5 µM	C=CC(=O)N1CCC=C(c2c(C3CC3)nc(N3CCN(C(=O)C[C@H]4CCO4)[C@H](C4CC4)C3)c(C#N)c2C)C1 [Compound 789, 5-(1-acryloyl-1,2,5,6-tetrahydropyridin-3-yl)-6-cyclopropyl-2-((R)-3-cyclopropyl-4-(2-((R)-oxetan-2-yl)acetyl)piperazin-1-yl)-4-methylnicotinonitrile]
< 0.5 µM	< 0.5 µM	< 0.5 µM	C=Cc1ncc2c(-c3cc(C#N)c(N4CCN(C(=O)C5CC5)[C@H](C5CC5)C4)nc3C3CC3)cccc2n1 [Compound 636, (R)-2-(4-(cyclopropanecarbonyl)-3-cyclopropylpiperazin-1-yl)-6-cyclopropyl-5-(2-vinylquinazolin-5-yl)nicotinonitrile]
0.5 to 1 µM	< 0.5 µM	< 0.5 µM	N#Cc1cc(-c2cccc3cnccc23)c(C2CC2)nc1N1CCN(C(=O)c2ccoc2)[C@H](C2CC2)C1 [Compound 488, (R)-6-cyclopropyl-2-(3-cyclopropyl-4-(furan-3-carbonyl)piperazin-1-yl)-5-(isoquinolin-5-yl)nicotinonitrile]
< 0.5 µM	< 0.5 µM	< 0.5 µM	C=Cc1cc(-c2cc(C#N)c(N3CCN(C(=O)CCO)[C@H](C4CC4)C3)nc2C2CC2)c2ccncc2n1 [Compound 688, (R)-6-cyclopropyl-2-(3-cyclopropyl-4-(3-hydroxypropanoyl)piperazin-1-yl)-5-(2-vinyl-1,7-naphthyridin-4-yl)nicotinonitrile]
< 0.5 µM	< 0.5 µM	< 0.5 µM	C=Cc1cc(Nc2cc(C#N)c(N3CCN(C(=O)CCO)[C@H](C)C3)nc2C2CC2)ccn1 [Compound 581, (R)-6-cyclopropyl-2-(4-(3-hydroxypropanoyl)-3-methylpiperazin-1-yl)-5-((2-vinylpyridin-4-yl)amino)nicotinonitrile]
< 0.5 µM	< 0.5 µM	< 0.5 µM	C=Cc1cnnc(Nc2cc(C#N)c(N3CCN(C(=O)CCOC)[C@H](C4CC4)C3)nc2C2CC2)c1 [Compound 775, (R)-6-cyclopropyl-2-(3-cyclopropyl-4-(3-methoxypropanoyl)piperazin-1-yl)-5-((5-vinylpyridazin-3-yl)amino)nicotinonitrile]
< 0.5 µM	< 0.5 µM	< 0.5 µM	C=Cc1cc(-c2c(C3CC3)nc(N3CCN(C(=O)CCO)[C@H](C4CC4)C3)c(C#N)c2C)ccn1 [Compound 589, (R)-2-cyclopropyl-6-(3-cyclopropyl-4-(3-hydroxypropanoyl)piperazin-1-yl)-4-methyl-2′-vinyl-3,4′-bipyridine-5-carbonitrile]
< 0.5 µM	< 0.5 µM	< 0.5 µM	C=Cc1cc(Nc2c(C3CC3)nc(N3CCN(C(=O)CCO)[C@H](C4CC4)C3)c(C#N)c2C)ccn1 [Compound 742, (R)-6-cyclopropyl-2-(3-cyclopropyl-4-(3-hydroxypropanoyl)piperazin-1-yl)-4-methyl-5-(2-vinylpyridin-4-ylamino)nicotinonitrile]
1 to 10 µM	0.5 to 1 µM	1 to 10 µM	C=C(C)C(=O)Nc1cccc(-c2cc(C#N)c(N3CCN(C(=O)CCOC)[C@H](C)C3)nc2C2CC2)c1 [Compound 449, (R)—N-(3-(5-cyano-2-cyclopropyl-6-(4-(3-methoxypropanoyl)-3-methylpiperazin-1-yl)pyridin-3-yl)phenyl)methacrylamide]
< 0.5 µM	< 0.5 µM	< 0.5 µM	C=CC(=O)Nc1cccc(-c2cc(C#N)c(N3CCN(C(=O)C4CC4)[C@H](C4CC4)C3)nc2C2CC2)c1 [Compound 454, (R)—N-(3-(5-cyano-6-(4-(cyclopropanecarbonyl)-3-cyclopropylpiperazin-1-yl)-2-cyclopropylpyridin-3-yl)phenyl)acrylamide]
< 0.5 µM	< 0.5 µM	< 0.5 µM	C=Cc1cc(-c2cc(C#N)c(N3CCN(C(=O)CCO)[C@H](C4CC4)C3)nc2C2CC2)nc(N)n1 [Compound 719, (R)-5-(2-amino-6-vinylpyrimidin-4-yl)-6-cyclopropyl-2-(3-cyclopropyl-4-(3-hydroxypropanoyl)piperazin-1-yl)nicotinonitrile]
< 0.5 µM	< 0.5 µM	< 0.5 µM	C=Cc1cc(-c2cc(C#N)c(N3CCN(C(=O)C4CC4)[C@H](C4CC4)C3)nc2C2CC2)ncn1 [Compound 541, (R)-2-(4-(cyclopropanecarbonyl)-3-cyclopropylpiperazin-1-yl)-6-cyclopropyl-5-(6-vinylpyrimidin-4-yl)nicotinonitrile]
< 0.5 µM	< 0.5 µM	< 0.5 µM	C=Cc1cc(-c2cc(C#N)c(N3CCN(C(=O)C[C@H]4CCO4)[C@H](C4CC4)C3)nc2C2CC2)c2cnn(C)c2n1 [Compound 778, 6-cyclopropyl-2-((R)-3-cyclopropyl-4-(2-((R)-oxetan-2-yl)acetyl)piperazin-1-yl)-5-(1-methyl-6-vinyl-1H-pyrazolo[3,4-b]pyridin-4-yl)nicotinonitrile]
< 0.5 µM	< 0.5 µM	< 0.5 µM	C=Cc1cc(-c2cc(C#N)c(N3CCN(C(=O)CCOC)[C@H](C4CC4)C3)nc2C2CC2)cnn1 [Compound 674, (R)-6-cyclopropyl-2-(3-cyclopropyl-4-(3-methoxypropanoyl)piperazin-1-yl)-5-(6-vinylpyridazin-4-yl)nicotinonitrile]

More lines, now with the values behind:

SMILES	IC50 (U87MG cells)	IC50 (IDH1 R132H)	IC50 (HT1080 cells)
COCCC(=O)N1CCN(c2nc(C3CC3)c(-c3cccc4cnccc34)cc2C#N)C[C@H]1C [Compound 286, (R)-6-cyclopropyl-5-(isoquinolin-5-yl)-2-(4-(3-methoxypropanoyl)-3-methylpiperazin-1-yl)nicotinonitrile]	< 0.5 µM	< 0.5 µM	< 0.5 µM
COCCC(=O)N1CCN(c2nc(C3CC3)c(Nc3ccnc4ccccc34)cc2C#N)C[C@H]1C [Compound 356, (R)-6-cyclopropyl-2-(4-(3-methoxypropanoyl)-3-methylpiperazin-1-yl)-5-(quinolin-4-ylamino)nicotinonitrile]	1 to 10 µM	< 0.5 µM	1 to 10 µM
C=Cc1cc(-c2cc(C#N)c(N3CCN(C(=O)CCOC)[C@H](C)C3)nc2C2CC2)ccn1 [Compound 390, (R)-2-cyclopropyl-6-(4-(3-methoxypropanoyl)-3-methylpiperazin-1-yl)-2′-vinyl-3,4′-bipyridine-5-carbonitrile]	< 0.5 µM	< 0.5 µM	< 0.5 µM
COCCC(=O)N1CCN(c2nc(C3CC3)c(-c3ccc4cc(OC)ccc4c3)c(C)c2C#N)C[C@H]1C [Compound 278, (R)-6-cyclopropyl-5-(6-methoxynaphthalen-2-yl)-2-(4-(3-methoxypropanoyl)-3-methylpiperazin-1-yl)-4-methylnicotinonitrile]	1 to 10 µM	0.5 to 1 µM	1 to 10 µM
COCCC(=O)N1CCN(c2nc(C3CC3)c(OC(C)c3ccccc3)cc2C#N)C[C@H]1C (stereo partly drawn) [Compound 277, 6-cyclopropyl-2-((R)-4-(3-methoxypropanoyl)-3-methylpiperazin-1-yl)-5-(1-phenylethoxy)nicotinonitrile]	1 to 10 µM	< 0.5 µM	1 to 10 µM
COCCC(=O)N1CCN(c2nc(C3CC3)c(-c3ccc4ccccc4c3)c(C)c2C#N)C[C@H]1C [Compound 267, (R)-6-cyclopropyl-2-(4-(3-methoxypropanoyl)-3-methylpiperazin-1-yl)-4-methyl-5-(naphthalen-2-yl)nicotinonitrile]	1 to 10 µM	0.5 to 1 µM	1 to 10 µM
COCCC(=O)N1CCN(c2nc(C3CC3)c(OCc3cccc(OC)c3)cc2C#N)C[C@H]1C [Compound 280, (R)-6-cyclopropyl-5-(3-methoxybenzyloxy)-2-(4-(3-methoxypropanoyl)-3-methylpiperazin-1-yl)nicotinonitrile]	1 to 10 µM	< 0.5 µM	1 to 10 µM
COCCC(=O)N1CCN(c2nc(C3CC3)c(-c3cccc(-c4cn[nH]c4)c3)cc2C#N)C[C@H]1C [Compound 406, (R)-6-cyclopropyl-2-[4-(3-methoxy-propionyl)-3-methyl-piperazin-1-yl]-5-[3-(1H-pyrazol-4-yl)-phenyl]-nicotinonitrile]	1 to 10 µM	< 0.5 µM	1 to 10 µM
COCCC(=O)N1CCN(c2nc(C3CC3)c(-c3cccc(CNS(C)(=O)=O)c3)c(C)c2C#N)C[C@H]1C [Compound 335, (R)—N-(3-{5-cyano-2-cyclopropyl-6-[4-(3-methoxy-propionyl)-3-methyl-piperazin-1-yl]-4-methyl-pyridin-3-yl}-benzyl)-methanesulfonamide]	< 0.5 µM	< 0.5 µM	0.5 to 1 µM
COCCC(=O)N1CCN(c2nc(C3CC3)c(-c3ccc(C(N)=O)cc3)cc2C#N)C[C@H]1C [Compound 296, (R)-4-(5-cyano-2-cyclopropyl-6-(4-(3-methoxypropanoyl)-3-methylpiperazin-1-yl)pyridin-3-yl)benzamide]	0.5 to 1 µM	< 0.5 µM	0.5 to 1 µM
COCCC(=O)N1CCN(c2nc(C3CC3)c(-c3cccc(NC(=O)CCl)c3)cc2C#N)C[C@H]1C [Compound 403, (R)-2-chloro-N-(3-(5-cyano-2-cyclopropyl-6-(4-(3-methoxypropanoyl)-3-methylpiperazin-1-yl)pyridin-3-yl)phenyl)acetamide]	0.5 to 1 µM	< 0.5 µM	0.5 to 1 µM
